Measurements from patent US20240343735A1, “Hydrochloride Salt of Inupadenant, Pharmaceutical Compositions and Methods of Use Thereof” (iTeos Belgium SA, priority 2021, published 2024).
Each block holds one compound with its values, some of them ahead of it.

Assays:
Format in all cases: physicochemical
[1] = Dynamic vapor sorption (DVS)
Protocol: 10-20 mg of sample was placed into a mesh vapor sorption balance pan and loaded into a DVS Intrinsic or Advantage dynamic vapor sorption balance by Surface Measurement Systems. The sample was subjected to a ramping profile from 40-90% relative humidity (RH) at 10% increments, maintaining the sample at each step until a stable weight had been achieved (dm/dt 0.004%, minimum step length 30 minutes, maximum step length 500 minutes) at 25° C. After completion of the sorption cycle, the sample was dried using the same procedure to 0% RH and then a second sorption cycle back to 40% RH. Two cycles were performed. The weight change during the sorption/desorption cycles were plotted, allowing for the hygroscopic nature of the sample to be determined. XRPD analysis (XRPD Method A) was then carried out on any solid retained.
DVS isotherms were collected using a Surface Measurement Systems Ltd. DVS-1 No Video, equipment #2126. The sample was loaded into balance pan, typically 10-30 mg, and equilibrated at 0% RH. After the material has dried the RH was increased with 10% per step for 1 hour per increment, ending at 95% RH. After completion of the sorption cycle, the sample was dried using the same method. The software used for data collection is DVSWin v3.01 No Video. Data analysis was performed using DVS Standard Analysis Suite v6.3.0 (Standard). […]

[2] = 7-day stability assessment of Form 2 inupadenant hydrochloride
[3] = Salt disproportionation study in unbuffered water; conditions: ambient temperature, 24 hours
[4] = Solubility assessment in solvents; conditions: 1,4-dioxane, water, tert-butyl alcohol, THF, ethyl acetate, acetone, methanol, DCM; even at 20 mg/mL with gentle heating
Protocol: 0.5-1 mL of solvent was added to each vial and the samples were manually shaken at ambient temperature. […] The solvents assessed in this solubility study were 1,4-dioxane, water, tert-butyl alcohol, THF, ethyl acetate, acetone, methanol, and DCM.

[5] = 7-day stability assessment of amorphous inupadenant hydrochloride
Protocol: A 7-day stability assessment of amorphous inupadenant hydrochloride was carried out as follows: (1) 20 mg amorphous inupadenant was added to 3×2 mL glass vials; (2) the samples were then stored under the following conditions—(i) 40° C./75% RH—open vial, (ii) 80° C.—closed vial, and (iii) ambient light—open vial; (3) Solids were stored for 1 week under the above conditions with XRPD analysis (Example 1, XRPD Method A) and HPLC purity analysis (Example 1, HPLC Method A) being carried out post-storage.

[6] = Dissolution rate assessment in pH 1.2, 0.2 M HCl/KCl buffer; conditions: for Conc. mg/mL in pH 1.2 HCl/KCl: ca. 37° C.
Protocol: 1000 μL of each sample was drawn from the slurry layer by automated pipette at 15, 30, 60, 120, 240 and 1440 minute timepoints. • These aliquots were spun down through a centrifuge filter, diluted 300 μl:300 μl with the method specified diluent and placed in total recovery vials. The solids were retained for XRPD analysis. • The solubility of the material in the buffer was determined by HPLC analysis (duplicate injections) (Example 1, HPLC Method C) against verified reference solutions of the source material at known concentrations.

[7] = 7 days, 40° C. + 75% RH, open vial
[8] = 7 days, ambient light, open vial

- DVS total mass uptake ([1]; at 95% RH, DVS Method B): 5 wt. %
Structure (SMILES): C[S@+]([O-])CCOc1cc(N2CCN(CCn3c(=O)sc4c3nc(N)n3nc(-c5ccco5)nc43)CC2)c(F)cc1F.Cl [Form 1 inupadenant hydrochloride]

- HPLC (Purity, % area) [2, 7]: 99.64 % area
- XRPD Analysis [2, 7]: Form 2 inupadenant
- HPLC (Purity, % area) ([2]; 7 days, 80° C., closed vial): 99.66 % area
- XRPD Analysis ([2]; 7 days, 80° C., closed vial): Form 2 inupadenant
- HPLC (Purity, % area) [2, 8]: 99.66 % area
- XRPD Analysis [2, 8]: Form 2 inupadenant
- change of solid form (XRPD) after 7-day stability assessment ([2]; all stability conditions): no changes to the solid form
- change of solid purity (HPLC) after 7-day stability assessment ([2]; all stability conditions): no changes to solid purity
- HPLC (Purity, % area) ([2]; input material): 99.61 % area
- XRPD Analysis ([2]; input material): Form 2 inupadenant
- solid form (XRPD) after slurrying in water [3]: no changes in the solid form
- DVS total mass increase ([1]; at 90% RH, 25° C., DVS Method A): 3.8 wt. %
- solubility in solvent systems [4]: insoluble
- change of solid purity (HPLC) after 7-day stability assessment ([5]; all stability conditions): no changes to solid purity
- solubility in pH 1.2 0.2 M HCl/KCl buffer ([6]; 37° C., overnight): low
- Conc. mg/mL in pH 1.2 HCl/KCl ([6]; 15 min): 0.0010 mg/mL
- Conc. mg/mL in pH 1.2 HCl/KCl ([6]; 30 min): 0.0013 mg/mL
- Conc. mg/mL in pH 1.2 HCl/KCl ([6]; 60 min): 0.0014 mg/mL
- Conc. mg/mL in pH 1.2 HCl/KCl ([6]; 120 min): 0.0023 mg/mL
- Conc. mg/mL in pH 1.2 HCl/KCl ([6]; 240 min): 0.0029 mg/mL
- Conc. mg/mL in pH 1.2 HCl/KCl ([6]; 1440 min): 0.0035 mg/mL
Structure (SMILES): C[S@+]([O-])CCOc1cc(N2CCN(CCn3c(=O)sc4c3nc(N)n3nc(-c5ccco5)nc43)CC2)c(F)cc1F.Cl.O [Form 2 inupadenant hydrochloride]
- XRPD of solids recovered from each timepoint ([6]; pH 1.2 HCl/KCl buffer): consistent with Form 2 inupadenant hydrochloride

- HPLC (Purity, % area) [5, 7]: 99.64 % area
- XRPD Analysis [5, 7]: Form 2 inupadenant
- HPLC (Purity, % area) ([5]; 7 days, 80° C., closed vial): 99.66 % area
- XRPD Analysis ([5]; 7 days, 80° C., closed vial): Form 2 inupadenant
- HPLC (Purity, % area) [5, 8]: 99.66 % area
- XRPD Analysis [5, 8]: Form 2 inupadenant
- HPLC (Purity, % area) ([5]; input material): 99.61 % area
- XRPD Analysis ([5]; input material): Predominantly amorphous
Structure (SMILES): C[S@+]([O-])CCOc1cc(N2CCN(CCn3c(=O)sc4c3nc(N)n3nc(-c5ccco5)nc43)CC2)c(F)cc1F.Cl [amorphous inupadenant hydrochloride]
- change of solid form (XRPD) after 7-day stability assessment ([5]; all stability conditions): crystallized into Form 2 inupadenant hydrochloride
